In ChEMBL document CHEMBL1221331, “Discovery of biphenylketones as dual modulators of inflammation and bone loss” (Bioorg Med Chem Lett, 2010):
Calls of active or inactive are those of the source. No cut-off for these calls is given here.

What was measured:
J774 = test: Cytotoxicity against mouse J774 cells expressing RANKL signaling by Alamar blue assay; assay type: functional, cell-based
[1] = Cytotoxicity against mouse osteoblast cells by alamar blue assay; assay type: cell-based
[2] = Cytotoxicity against mouse osteoclast cells expressing RANKL signaling by Alamar blue assay; assay type: functional, cell-based
Mus musculus [3] = test: Antiarthritic activity in mouse assessed as inhibition of collagen-induced arthritis at 10 mg/kg/day, po administered 15 days post collagen challenge; assay type: functional, organism-based
Mus musculus [4] = test: Effect on ovariectomy-induced bone loss in mouse assessed as reduction in trabecular bone mineral density at 20 mg/kg/day, po (reference value: bone mineral density loss = 34%); assay type: functional, Trabecula; set-up: scale not given: the % may be the effect or the level left
[5] = Inhibition of NFkappa signaling in mouse macrophages assessed as reduction in TNF-alpha-induced IkapppaB phosphorylation at 10 uM pretreated for 1 hr before TNFalpha challenge by Western blotting
[6] = molecular target: T1, Tumor necrosis factor ligand superfamily member 11 (Mus musculus) (UniProt O35235); test: Inhibition of NFkappa signaling in mouse macrophages assessed as reduction in RANKL-induced IkapppaB phosphorylation at 50 uM pretreated for 1 hr before RANKL challenge by Western blotting
T1 sequence (whole entry): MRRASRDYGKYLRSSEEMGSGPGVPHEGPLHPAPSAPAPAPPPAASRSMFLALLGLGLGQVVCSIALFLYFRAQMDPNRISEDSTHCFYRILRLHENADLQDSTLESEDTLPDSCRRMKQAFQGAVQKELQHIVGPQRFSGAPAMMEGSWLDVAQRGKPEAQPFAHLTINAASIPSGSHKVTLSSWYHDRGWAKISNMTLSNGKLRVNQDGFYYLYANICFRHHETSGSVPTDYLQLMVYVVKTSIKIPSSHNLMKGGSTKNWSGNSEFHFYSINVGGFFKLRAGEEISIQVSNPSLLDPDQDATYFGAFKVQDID

[7] = Inhibition of NFkappa signaling in mouse macrophages assessed as reduction in TNF-alpha-induced IkapppaB phosphorylation at 50 uM pretreated for 1 hr before TNFalpha challenge by Western blotting
[8] = molecular target: T1, Tumor necrosis factor ligand superfamily member 11 (Mus musculus); test: Inhibition of NFkappa signaling in mouse macrophages assessed as reduction in RANKL-induced IkapppaB phosphorylation at 10 uM pretreated for 1 hr before RANKL challenge by Western blotting
Mus musculus [9] = test: Anti-resorptive activity against ovariectomy-induced bone loss in mouse assessed as increase in trabecular bone mineral density at 20 mg/kg/day, po relative to untreated control; assay type: functional, Trabecula
Mus musculus [10] = test: Antiarthritic activity in mouse assessed as inhibition of collagen-induced arthritis at 10 mg/kg/day, ip administered 15 days post collagen challenge; assay type: functional, organism-based

Work on `CCOc1ccc(-c2ccc(C(O)CCCCCO)cc2)cc1` (stereo not given) yielded an IC50 (J774) of 14 µM.
In the case of `O=C(CCCCCO)c1ccc(-c2ccc(C(F)(F)F)cc2C(F)(F)F)cc1`, the IC50 (J774) is reported as 23 µM.
`Cc1cc(C(O)CCCCCO)ccc1-c1ccc(F)cc1F` (stereo not given) showed an IC50 [1] of over 100 µM, an IC50 [2] of 1.3 µM and an IC50 (J774) of 8 µM.
`Cc1ccccc1-c1ccc(C(O)CCCCCO)cc1` (stereo not given) gave an IC50 (J774) of 24 µM.
With `OCCCCCC(O)c1ccc(-c2ccccc2)c(F)c1` (stereo not given) the IC50 (J774) was 17 µM.
With `COc1ccc(-c2ccc(C(=O)CCCCCO)cc2)c(OC)c1` the IC50 [2] was 13 µM and the IC50 (J774) was 50 µM.
For `OCCCCCC(O)c1ccc(-c2ccccc2)cc1` (stereo not given), the IC50 [1] was over 100 µM, the IC50 [2] was 8 µM and the IC50 (J774) was 22 µM.
For `OCCCCCC(O)c1ccc(-c2ccccc2O)cc1` (stereo not given), the IC50 (J774) was 40 µM.
`OCCCCCC(O)c1ccc(-c2ccc(Cl)cc2)cc1` (stereo not given) showed an IC50 (J774) of 17 µM.
For `OCCCCCC(O)c1ccc(-c2ccc(C(F)(F)F)cc2)cc1` (stereo not given), the IC50 (J774) was 13 µM.
`OCCCCCC(O)c1ccc(-c2cccc(Cl)c2)cc1` (stereo not given) gave an IC50 (J774) of over 100 µM.
`OCCCCCC(O)c1ccc(-c2ccc(Br)cc2)cc1` (stereo not given) showed an IC50 (J774) of 20 µM.
In the case of `OCCCCCC(O)c1ccc(-c2ccc(Cl)cc2Cl)cc1` (stereo not given), the IC50 (J774) is reported as 8 µM.
With `Cc1cc(S(=O)(=O)NCCCCO)ccc1-c1ccc(F)cc1F` the inhibition (Mus musculus [3]) was “Active”.
In the case of `COc1ccc(-c2ccc(C(=O)CCCCCO)cc2)cc1OC`, the IC50 [2] is reported as 14 µM and the IC50 (J774) is reported as 60 µM.
For `O=C(CCCCCO)c1ccc(-c2ccccc2)cc1`, the IC50 [1] was over 100 µM, the IC50 [2] was 9 µM and the Activity (Mus musculus [4]) was 21%. For the same compound, the IC50 (J774) was 22 µM.
`CSc1ccc(-c2ccc(C(O)CCCCCO)cc2)cc1` (stereo not given) showed an IC50 (J774) of 24 µM.
With `OCCCCCCc1ccc(-c2ccccc2)cc1` the inhibition [5] was “inactive”, the inhibition [6] was “inactive” and the inhibition [7] was “inactive”.
Work on `OCCCCCC(O)c1ccc(-c2ccccc2F)cc1` (stereo not given) yielded an IC50 (J774) of 22 µM.
Compound `Cc1ccc(-c2ccc(C(O)CCCCCO)cc2)cc1` (stereo not given) has an IC50 (J774) of 22 µM.
For `O=C(CCCCCO)c1ccc(-c2ccc(F)cc2Cl)cc1`, the IC50 (J774) was 15 µM.
`Cc1cc(F)ccc1-c1ccc(C(O)CCCCCO)cc1` (stereo not given) gave an IC50 (J774) of 20 µM.
With `Cc1cc(C(=O)CCCCCO)ccc1-c1ccc(F)cc1F` the inhibition (Mus musculus [3]) was “Active”, the inhibition [5] was “Active” and the IC50 [2] was 1.5 µM. The inhibition [8] was “Active” and the IC50 (J774) was 8 µM.
In the case of `COc1cc(F)ccc1-c1ccc(C(O)CCCCCO)cc1` (stereo not given), the IC50 (J774) is reported as 70 µM.
In the case of `CN(C)c1ccc(-c2ccc(C(O)CCCCCO)cc2)cc1` (stereo not given), the IC50 (J774) is reported as 28 µM.
`OCCCCCC(O)c1ccc(-c2ccc(O)cc2)cc1` (stereo not given) gave an IC50 (J774) of 15 µM.
`OCCCCCC(O)c1ccc(-c2ccc(F)cc2)cc1` (stereo not given) showed an IC50 (J774) of 18 µM.
Work on `O=C(CCCCCO)c1ccc(-c2ccc(F)c(F)c2)cc1` yielded an IC50 (J774) of 20 µM.
In the case of `O=C(CCCCCO)c1ccc(-c2ccc(Cl)cc2Cl)cc1`, the IC50 [1] is reported as over 100 µM, the inhibition (Mus musculus [3]) is reported as “Active” and the Activity (Mus musculus [9]) is reported as 6%. The inhibition [5] was “Active”, the IC50 [2] was 0.8 µM and the inhibition (Mus musculus [10]) was “Active”. The Activity (Mus musculus [4]) was -6%, the inhibition [8] was “Active” and the IC50 (J774) was 8 µM.
Compound `O=C(CCCCCO)c1ccc(-c2ccc(F)cc2F)cc1Cl` has an IC50 [1] of over 100 µM, an Activity (Mus musculus [9]) of -3% and an IC50 [2] of 3 µM. For the same compound, the IC50 (J774) was 7 µM.
In the case of `Cc1cc(-c2ccc(F)cc2F)ccc1C(=O)CCCCCO`, the IC50 (J774) is reported as 4 µM.
`O=C(CCCCCO)c1ccc(-c2ccc(F)cc2F)cc1` gave an IC50 [1] of over 100 µM, an IC50 [2] of 2 µM and an Activity (Mus musculus [4]) of 10%. It also gave an IC50 (J774) of 6 µM.
`OCCCCCC(O)c1ccc(-c2ccc(F)cc2F)cc1` (stereo not given) gave an IC50 (J774) of 8 µM.
`Cc1cccc(-c2ccc(C(O)CCCCCO)cc2)c1` (stereo not given) gave an IC50 (J774) of over 100 µM.
With `Cc1cc(F)ccc1-c1ccc(C(=O)CCCCCO)cc1` the IC50 (J774) was 20 µM.
In the case of `Cc1cccc(-c2ccc(C(=O)CCCCCO)cc2)c1`, the inhibition [6] is reported as “inactive”, the IC50 (J774) is reported as 100 µM and the inhibition [7] is reported as “inactive”.
Work on `OCCCCCC(O)c1ccc(-c2ccc(OC(F)(F)F)cc2)cc1` (stereo not given) yielded an IC50 (J774) of 14 µM.
Compound `OCCCCCC(O)c1ccc(-c2ccc(F)cc2)cc1F` (stereo not given) has an IC50 (J774) of 14 µM.
`OCCCCCC(O)c1ccc(-c2ccc(F)cc2)cc1Cl` (stereo not given) gave an IC50 (J774) of 8 µM.
